Reference: ChEMBL document CHEMBL1143875, “Synthesis and structure-activity relationships of thiadiazole-derivatives as potent and orally active peroxisome proliferator-activated receptors alpha/delta dual agonists” (Bioorg Med Chem, 2008)
pIC50: −log10 of the molar value. Calls of active or inactive are those of the source. The rule behind the calls is not given here.

Columns and labels:
[1] = AUC in ob/ob C57BL/6J-leptin deficient obese mouse at 0.1 mg/kg administered as multiple dose after 11 days; format: ADME, organism-based; parameters: dose 0.1 mg/kg; conditions: plasma
[2] = AUC in Sprague-Dawley rat at 0.1 mg/kg administered as multiple dose after 8 days; format: ADME, organism-based; parameters: dose 0.1 mg/kg; conditions: plasma
Canis familiaris = test: Effect on aspartate aminotransferase level in Beagle dog serum at 0.3 to 3 mg/kg, po/day after 7 days; format: functional, organism-based; conditions: Canis lupus familiaris
[3] = Cmax in ob/ob C57BL/6J-leptin deficient obese mouse at 3 mg/kg administered as multiple dose after 11 days; format: ADME, organism-based; parameters: dose 3 mg/kg; conditions: in vivo
[4] = Induction of Pa9 gene expression in human skeletal muscle cells at 1000 nM by RT-PCR; format: functional
[5] = Cmax in Beagle dog at 10 mg/kg administered as multiple dose after 7 days; format: ADME, organism-based, Canis lupus familiaris; parameters: dose 10 mg/kg; conditions: in vivo
[6] = AUC in ob/ob C57BL/6J-leptin deficient obese mouse at 0.3 mg/kg administered as multiple dose after 11 days; format: ADME, organism-based; parameters: dose 0.3 mg/kg; conditions: plasma
[7] = Half life in Sprague-Dawley rat at 3 mg/kg administered as multiple dose after 8 days; format: ADME, organism-based; parameters: dose 3 mg/kg; conditions: in vivo
Mus musculus [8] = test: Increase in HDL cholesterol level in po dosed hApoA1 transgenic mouse after 7 days; format: functional, organism-based
[9] = Induction of ABCA1 gene expression in human skeletal muscle cells at 1000 nM by RT-PCR; format: functional
[10] = AUC in Sprague-Dawley rat at 3 mg/kg administered as single dose on day 8; format: ADME, organism-based; parameters: dose 3 mg/kg; conditions: plasma
[11] = Cmax in Beagle dog at 10 mg/kg administered as single dose on day 7; format: ADME, organism-based, Canis lupus familiaris; parameters: dose 10 mg/kg; conditions: in vivo
Mus musculus [12] = test: […] effect of ob/ob C57BL/6J-leptin deficient obese mouse assessed as reduction in body weight at 0.1 to 3 mg/kg, po after 11 days; format: functional, organism-based
[13] = Half life in ob/ob C57BL/6J-leptin deficient obese mouse at 0.3 mg/kg administered as multiple dose after 11 days; format: ADME, organism-based; parameters: dose 0.3 mg/kg; conditions: in vivo
[14] = AUC in ob/ob C57BL/6J-leptin deficient obese mouse at 3 mg/kg administered as multiple dose after 11 days; format: ADME, organism-based; parameters: dose 3 mg/kg; conditions: plasma
[15] = Half life in ob/ob C57BL/6J-leptin deficient obese mouse at 3 mg/kg administered as single dose on day 11; format: ADME, organism-based; parameters: dose 3 mg/kg; conditions: in vivo
Rattus norvegicus = test: Decrease in triglyceride level in po dosed hypercholesterolemic Sprague-Dawley rat serum after 8 days; format: functional, organism-based
[16] = Half life in Beagle dog at 10 mg/kg administered as multiple dose after 7 days; format: ADME, organism-based, Canis lupus familiaris; parameters: dose 10 mg/kg; conditions: in vivo
[17] = AUC in ob/ob C57BL/6J-leptin deficient obese mouse at 1 mg/kg administered as multiple dose after 11 days; format: ADME, organism-based; parameters: dose 1 mg/kg; conditions: plasma
[18] = target: T1, Bile acid receptor (Homo sapiens) (UniProt Q96RI1); test: Activity at farnesoid X receptor
T1 sequence (whole entry): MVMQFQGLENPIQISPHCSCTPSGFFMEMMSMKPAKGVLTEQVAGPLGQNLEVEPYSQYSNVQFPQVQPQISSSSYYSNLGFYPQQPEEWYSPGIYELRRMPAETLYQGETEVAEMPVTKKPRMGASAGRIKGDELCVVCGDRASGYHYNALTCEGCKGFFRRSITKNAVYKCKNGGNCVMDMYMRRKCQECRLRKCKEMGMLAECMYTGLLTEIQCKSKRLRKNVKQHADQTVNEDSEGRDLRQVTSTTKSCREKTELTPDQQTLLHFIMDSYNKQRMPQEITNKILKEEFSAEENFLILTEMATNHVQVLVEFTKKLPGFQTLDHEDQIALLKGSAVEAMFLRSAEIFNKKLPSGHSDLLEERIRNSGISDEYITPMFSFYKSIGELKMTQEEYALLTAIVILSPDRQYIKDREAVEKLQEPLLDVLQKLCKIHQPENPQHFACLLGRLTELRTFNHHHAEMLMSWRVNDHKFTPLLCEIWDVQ

[19] = Induction of CPT1 gene expression in human skeletal muscle cells at 1000 nM by RT-PCR; format: functional
[20] = Cmax in ob/ob C57BL/6J-leptin deficient obese mouse at 0.3 mg/kg administered as multiple dose after 11 days; format: ADME, organism-based; parameters: dose 0.3 mg/kg; conditions: in vivo
Mus musculus [21] = test: Reduction in triglyceride level in po dosed hApoA1 transgenic mouse after 7 days; format: functional, organism-based
Mus musculus [22] = test: […] effect of ob/ob C57BL/6J-leptin deficient obese mouse assessed as reduction in serum glucose level at 0.1 to 3 mg/kg, po after 11 days; format: functional; parameters: scale not given: the % may be the effect or the level left; conditions: dose mg/kg 0.1-3
[23] = AUC in Beagle dog at 3 mg/kg administered as multiple dose after 7 days; format: ADME, organism-based, Canis lupus familiaris; parameters: dose 3 mg/kg; conditions: plasma
Mus musculus [24] = test: […] effect of ob/ob C57BL/6J-leptin deficient obese mouse assessed as reduction in triglyceride level at 0.1 to 3 mg/kg, po after 11 days; format: functional; parameters: scale not given: the % may be the effect or the level left; conditions: dose mg/kg 0.1-3
[25] = Half life in Beagle dog at 1 mg/kg administered as multiple dose after 7 days; format: ADME, organism-based, Canis lupus familiaris; parameters: dose 1 mg/kg; conditions: in vivo
[26] = Half life in Beagle dog at 3 mg/kg administered as multiple dose after 7 days; format: ADME, organism-based, Canis lupus familiaris; parameters: dose 3 mg/kg; conditions: in vivo
[27] = Inhibition of cytochrome P450 in human liver microsome; format: ADME, microsomes
[28] = Activity at retinoic acid X receptor
[29] = AUC in Sprague-Dawley rat at 3 mg/kg administered as multiple dose after 8 days; format: ADME, organism-based; parameters: dose 3 mg/kg; conditions: plasma
[30] = target: T2, Glucocorticoid receptor (Homo sapiens) (UniProt P04150); test: Activity at glucocorticoid receptor
T2 sequence (whole entry): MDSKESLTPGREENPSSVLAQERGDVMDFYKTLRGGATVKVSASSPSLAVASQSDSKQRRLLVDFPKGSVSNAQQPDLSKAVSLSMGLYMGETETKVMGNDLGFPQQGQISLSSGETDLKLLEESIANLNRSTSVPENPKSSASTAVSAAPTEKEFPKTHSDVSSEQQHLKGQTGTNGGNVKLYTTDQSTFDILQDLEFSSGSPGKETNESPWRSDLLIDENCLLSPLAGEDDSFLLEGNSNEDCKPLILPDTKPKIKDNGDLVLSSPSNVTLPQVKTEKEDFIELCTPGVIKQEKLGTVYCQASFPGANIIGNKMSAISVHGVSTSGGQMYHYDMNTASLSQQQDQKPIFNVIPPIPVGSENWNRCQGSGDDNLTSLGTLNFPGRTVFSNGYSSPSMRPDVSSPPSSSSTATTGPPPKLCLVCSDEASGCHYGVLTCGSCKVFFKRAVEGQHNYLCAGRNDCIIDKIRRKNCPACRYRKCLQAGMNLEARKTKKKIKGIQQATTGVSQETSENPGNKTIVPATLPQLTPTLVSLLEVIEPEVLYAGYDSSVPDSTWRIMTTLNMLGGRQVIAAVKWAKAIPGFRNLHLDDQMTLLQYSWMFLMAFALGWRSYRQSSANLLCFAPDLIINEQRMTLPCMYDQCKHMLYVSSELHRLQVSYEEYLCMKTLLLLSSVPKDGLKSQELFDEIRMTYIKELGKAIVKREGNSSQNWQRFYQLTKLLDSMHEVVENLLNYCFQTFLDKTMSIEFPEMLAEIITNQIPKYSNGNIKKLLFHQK

SMILES: Cc1cc(SCc2nc(-c3ccc(Cl)c(Cl)c3)ns2)ccc1OC(C)(C)C(=O)O
- AUC at 264 h [1]: 2780 ng·h/mL
- AUC at 192 h [2]: 738 ng·h/mL
- Activity (Canis familiaris): inactive
- Cmax [3]: 26300 ng/mL
- Fold change [4]: 15
- Cmax [5]: 10100 ng/mL
- AUC at 264 h [6]: 10600 ng·h/mL
- half-life [7]: 7.1 h
- Activity (Mus musculus [8]): Dose-dependent effect
- Fold change [9]: 4.8
- AUC [10]: 24200 ng·h/mL
- Cmax [11]: 10100 ng/mL
- Activity (Mus musculus [12]): Active
- half-life [13]: 5 h
- AUC at 264 h [14]: 249000 ng·h/mL
- half-life [15]: 5.1 h
- Activity (Rattus norvegicus): Dose-dependent effect
- half-life [16]: 6.2 h
- AUC at 264 h [17]: 47600 ng·h/mL
- Activity [18]: inactive
- Fold change [19]: 7.8
- Cmax [20]: 1840 ng/mL
- Activity (Mus musculus [21]): Active
- Activity (Mus musculus [22]): 52%
- AUC at 168 h [23]: 24100 ng·h/mL
- Activity (Mus musculus [24]): 83%
- half-life [25]: 4.7 h
- half-life [26]: 6 h
- pIC50 [27]: < 4.52
- Activity [28]: inactive
- AUC at 192 h [29]: 27100 ng·h/mL
- Activity [30]: inactive
